Experimental data: paper PMC11620517, “Novel hydrazone compounds with broad-spectrum antiplasmodial activity and synergistic interactions with antimalarial drugs” (Antimicrobial Agents and Chemotherapy, 2024)
Values joined by “and” are separate entries in the source; they are usually repeats but may differ in a detail not shown here. Identical values can stand only once. Like-named read-outs stand apart in the source and are kept apart here.

How the values were obtained:
human GST = target: T1, human GST (Homo sapiens, UniProt P08263); experiment: GST inhibition assay (CDNB); assay type: biochemical; details: 6-point 1–50 µM
T1 construct: The open reading frames encoding PfGST, PbGST, and hGST were gene-synthesized; TEV cleavage site (C); Avitag (C); purchased InterRayBio, LLC; host or cells: E. coli BL21 (DE3)
T1 sequence (P08263 1-222): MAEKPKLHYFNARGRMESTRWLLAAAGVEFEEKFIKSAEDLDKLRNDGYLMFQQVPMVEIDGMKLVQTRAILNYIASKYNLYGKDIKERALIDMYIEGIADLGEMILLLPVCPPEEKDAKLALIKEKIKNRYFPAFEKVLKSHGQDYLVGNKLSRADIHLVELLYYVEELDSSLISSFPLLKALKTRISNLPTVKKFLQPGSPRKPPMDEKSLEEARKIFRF
Description: (§1) Enzymatic activities of recombinant GSTs were determined spectrophotometrically using the chromogenic substrate 1-chloro-2,4-dinitrobenzene (CDNB). Recombinant GST (0.35 mg/mL) was mixed with 1 mM CDNB in 100 mM HEPES. Stock solutions (10 mM) of the CB compounds and hemin were prepared in 100% dimethyl sulfoxide (DMSO) and then diluted at 0.5% DMSO ([14]). Each inhibitor has six concentrations ranging from 1 to 50 µM. The reaction was initiated with 1 mM glutathione (GSH) after 15 minutes. Absorbance change at 340 nm was measured for 1 hour. The slope was converted to micromole per minute using Beer’s equation and the extinction coefficient for the product S-(2,4-dinitrophenyl)glutathione (ε340 nm = 9.6 mM^–1 cm^–1) ([14]). The assay was validated using human placenta GST (#G8642) as a positive control.

[1] = target: T2, recombinant P. falciparum GST (Plasmodium falciparum, UniProt Q8ILQ7); experiment: GST inhibition assay (CDNB); assay type: biochemical; details: 6-point 1–50 µM
T2 construct: The open reading frames encoding PfGST, PbGST, and hGST were gene-synthesized; TEV cleavage site (C); Avitag (C); purchased InterRayBio, LLC; host or cells: E. coli BL21 (DE3)
T2 sequence (Q8ILQ7 1-211): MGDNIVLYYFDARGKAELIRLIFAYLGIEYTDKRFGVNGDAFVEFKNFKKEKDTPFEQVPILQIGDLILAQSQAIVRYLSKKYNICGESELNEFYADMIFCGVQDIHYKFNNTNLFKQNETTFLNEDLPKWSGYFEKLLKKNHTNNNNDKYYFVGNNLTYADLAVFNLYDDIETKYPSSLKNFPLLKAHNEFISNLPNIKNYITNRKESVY
Description: as §1

[2] = test system: recombinant P. berghei GST; experiment: GST inhibition assay (CDNB); assay type: biochemical, Plasmodium berghei; details: 6-point 1–50 µM
Description: as §1

[3] = test system: P. cynomolgi hypnozoites and hepatic schizonts; experiment: P. cynomolgi liver-stage inhibition assay; assay type: cell-based, Plasmodium cynomolgi; details: for IC50: Plasmodium cynomolgi, prophylactic drug treatment mode
Description: (§2) Primary primate hepatocytes were seeded in 384-well plates and used within 2–4 days ([56]). P. cynomolgi B strain parasites were inoculated and developed into hypnozoites and schizonts. CB compounds were tested in 8-point, threefold serial dilutions (100 µM to […]) for both prophylactic (4 days starting with sporozoite addition) and radical cure (4 days starting day 4 post-inoculation) modalities ([56][–][60]). The Operetta CLS imaging system and Harmony Software 4.9 (Perkin Elmer, Waltham, MA, USA) analyzed the plates, and the percentage of inhibition (PI) was calculated in Python using equation (1), where parasitic quantities (hypnozoite and schizont counts) were normalized to the negative control ([57]). Each plate included negative (DMSO) and positive (KDU691, maduramicin, tafenoquine) controls ([58]). IC50 values were determined using an 8-point, threefold dilution format and a Python-adapted grid algorithm for fitting PI to a four-parameter logistic function ([61]).
PI = 100 ∗(1−(xy/Meanneg))

[4] = test system: primary primate hepatocytes; experiment: hepatocyte toxicity in the P. cynomolgi liver-stage assay; assay type: cell-based
Description: as §2

[5] = test system: P. falciparum oocyst formation in Anopheles stephensi mosquitoes; experiment: P. falciparum oocyst inhibition assay (SMFA); assay type: in vivo, Plasmodium falciparum; details: for Median (oocysts) / Median I % / Prevalence % / Prevalence I %: pooled from two representative experiments; for oocyst formation inhibition: midguts dissected 8 days after feeding
Description: As previously described, P. falciparum infections were performed using SMFA with NF54 gametocyte cultures diluted to 0.3% stage V gametocytemia ([62]). Infected blood (O+ human 45% hematocrit in serum) was offered to mosquitoes for 30 minutes, and engorged mosquitoes were maintained on a 10% corn syrup solution supplemented by four concentrations of CB compounds (1, 2.5, 5, and 10 µM) at […] ([63]), with DMSO serving as a control. Eight days post-infection, mosquito midguts were dissected and stained with 0.2% mercurochrome for 30 minutes, and oocysts were quantified under a light microscope ([63]).

in vitro = details: human, HepG2 cells
Description: HepG2 cell viability was assessed using the Cell Proliferation kit with trypan blue exclusion. […] After incubation, a 1.5-mg/mL Cell Proliferation kit solution diluted in complete MEM medium was added to each well, followed by 1-hour dark incubation at 25°C. After aspiration of media and inhibitors, the plates were dried in a hood for 15 minutes, and acidified isopropyl alcohol was added to dissolve formazan dye crystals. The plates were then rotated for 15–30 minutes, and absorbance was determined using a Perkin Elmer Ensight plate reader.

[6] = 1 μM compound, P. falciparum midgut infection in An. stephensi mosquitoes
[7] = 1 μM compound, infection prevalence in mosquitoes
[8] = 2.5 μM compound, P. falciparum midgut infection in An. stephensi mosquitoes
[9] = 2.5 μM compound, infection prevalence in mosquitoes
[10] = 2.5 μM, single experiments, read-out: % inhibition (mean)
[11] = 2.5 μM, single experiments, read-out: % inhibition (median)
[12] = 5 μM compound, P. falciparum midgut infection in An. stephensi mosquitoes
[13] = 5 μM compound, infection prevalence in mosquitoes
[14] = 5 μM, single experiments, read-out: % inhibition (mean)
[15] = 10 μM compound, P. falciparum midgut infection in An. stephensi mosquitoes
[16] = 10 μM compound, infection prevalence in mosquitoes

COc1cccc(/C=N/NC(=O)c2nc(-c3ccccc3)cc(-c3ccccc3)n2)c1O [CB-41]
GST inhibition (human GST): did not inhibit
GST inhibition [1]: did not inhibit
GST inhibition [2]: did not inhibit
IC50 ([3]; read-out: Hypnozoite IC50): 8.7 µM
IC50 ([3]; read-out: Schizont IC50): 8.4 µM
IC50 ([3]; read-out: Total parasite IC50): 8.6 µM
antiplasmodial activity on liver stages ([3]; radical cure mode): did not show antiplasmodial activity
Toxicity [4]: >10 µM
Median oocyst # ([5]; 1 μM compound): 45
Mean oocyst # excluding zeros (Range) [5, 6]: 53 (0-136)
Prevalence [5, 7]: 85
inhibition at 1 µM ([5]; 1 μM compound, vs DMSO control, read-out: % inhibition (prevalence)): 14%
Median (oocysts) ([5]; 1 µM): 45
Median I % ([5]; 1 µM): 18%
Prevalence % ([5]; 1 µM): 85%
Prevalence I % ([5]; 1 µM): 14%
Mean oocyst # excluding zeros (Range) ([5]; 1 μM, single experiments): 53 (0-136) and 77 (0-156)
Median oocyst # ([5]; 1 μM, single experiments): 45 and 63
Median oocyst # ([5]; 2.5 μM compound): 44
Mean oocyst # excluding zeros (Range) [5, 8]: 51 (0-123)
Prevalence [5, 9]: 83
inhibition at 2.5 µM ([5]; 2.5 μM compound, oocyst number vs DMSO control, read-out: % inhibition (mean)): 2%
inhibition at 2.5 µM ([5]; 2.5 μM compound, oocyst number vs DMSO control, read-out: % inhibition (median)): 19%
inhibition at 2.5 µM ([5]; 2.5 μM compound, vs DMSO control, read-out: % inhibition (prevalence)): 17%
Median (oocysts) ([5]; 2.5 µM): 44
Median I % ([5]; 2.5 µM): 19%
Prevalence % ([5]; 2.5 µM): 83%
Prevalence I % ([5]; 2.5 µM): 17%
% inhibition (mean) ([5]; 2.5 μM, single experiments): 9%
% inhibition (median) ([5]; 2.5 μM, single experiments): 30%
Mean oocyst # excluding zeros (Range) ([5]; 2.5 μM, single experiments): 47 (0-92) and 55 (0-123) and 64 (0-156)
Median oocyst # ([5]; 2.5 μM, single experiments): 40 and 48
inhibition at 2.5 µM [5, 10]: 10%
inhibition at 2.5 µM [5, 11]: 26%
Median oocyst # ([5]; 5 μM compound): 32
Mean oocyst # excluding zeros (Range) [5, 12]: 49 (0-108)
Prevalence [5, 13]: 71
inhibition at 5 µM ([5]; 5 μM compound, oocyst number vs DMSO control, read-out: % inhibition (mean)): 6%
inhibition at 5 µM ([5]; 5 μM compound, oocyst number vs DMSO control, read-out: % inhibition (median)): 41%
inhibition at 5 µM ([5]; 5 μM compound, vs DMSO control, read-out: % inhibition (prevalence)): 28%
Median (oocysts) ([5]; 5 µM): 32
Median I % ([5]; 5 µM): 41%
Prevalence % ([5]; 5 µM): 71%
Prevalence I % ([5]; 5 µM): 28%
Mean oocyst # excluding zeros (Range) ([5]; 5 μM, single experiments): 45 (0-108) and 52 (0-107) and 70 (0-144)
inhibition at 5 µM [5, 14]: 15%
Median oocyst # ([5]; 10 μM compound): 35
Mean oocyst # excluding zeros (Range) [5, 15]: 44 (0-128)
Prevalence [5, 16]: 82
inhibition at 10 µM ([5]; 10 μM compound, oocyst number vs DMSO control, read-out: % inhibition (mean)): 15%
inhibition at 10 µM ([5]; 10 μM compound, vs DMSO control, read-out: % inhibition (prevalence)): 18%
Median (oocysts) ([5]; 10 µM): 35
Median I % ([5]; 10 µM): 36%
Prevalence % ([5]; 10 µM): 82%
Prevalence I % ([5]; 10 µM): 18%
% inhibition (prevalence) ([5]; 10 μM, single experiments): 45%
Mean oocyst # excluding zeros (Range) ([5]; 10 μM, single experiments): 37 (0-102) and 50 (0-128) and 59 (0-146)
Median oocyst # ([5]; 10 μM, single experiments): 27 and 44
inhibition at 10 µM ([5]; 10 μM, single experiments, read-out: % inhibition (prevalence)): 46%
median inhibition percentage ([5]; 1 to 10 µM): below 50%
prevalence inhibition percentage ([5]; 1 to 10 µM): below 50%
oocyst formation inhibition ([5]; 1 to 10 µM): inhibited midgut oocyst formation in a dose-dependent manner
IC50 at 48 h (in vitro): > 20 µM

O=C(N/N=C/c1cc(Br)ccc1O)/C(=C/C=C/c1ccccc1)NC(=O)c1ccccc1 [CB-50]
GST inhibition (human GST): did not inhibit
GST inhibition [1]: did not inhibit
GST inhibition [2]: did not inhibit
IC50 ([3]; read-out: Hypnozoite IC50): > 10 µM
IC50 ([3]; read-out: Schizont IC50): > 10 µM
IC50 ([3]; read-out: Total parasite IC50): > 10 µM
Toxicity [4]: >10 µM
Median oocyst # ([5]; 1 μM compound): 8
Mean oocyst # excluding zeros (Range) [5, 6]: 18 (0-95)
Prevalence [5, 7]: 81
Median (oocysts) ([5]; 1 µM): 8
Prevalence % ([5]; 1 µM): 82%
Prevalence ([5]; 1 μM, single experiments): 73 and 91 and 90
inhibition at 1 µM ([5]; 1 μM, single experiments, read-out: % inhibition (mean)): 48%
inhibition at 1 µM ([5]; 1 μM, single experiments, read-out: % inhibition (median)): 48%
Median oocyst # ([5]; 2.5 μM compound): 9
Mean oocyst # excluding zeros (Range) [5, 8]: 26 (0-103)
Prevalence [5, 9]: 74
Median (oocysts) ([5]; 2.5 µM): 9
Prevalence % ([5]; 2.5 µM): 74%
Prevalence ([5]; 2.5 μM, single experiments): 68 and 82 and 83
inhibition at 2.5 µM [5, 10]: 38%
inhibition at 2.5 µM [5, 11]: 48%
inhibition at 2.5 µM ([5]; 2.5 μM, single experiments, read-out: % inhibition (prevalence)): 5%
Median oocyst # ([5]; 5 μM compound): 7
Mean oocyst # excluding zeros (Range) [5, 12]: 15 (0-67)
Prevalence [5, 13]: 89
Median (oocysts) ([5]; 5 µM): 7
Prevalence % ([5]; 5 µM): 89%
Prevalence ([5]; 5 μM, single experiments): 87 and 90 and 92
inhibition at 5 µM [5, 14]: 19%
inhibition at 5 µM ([5]; 5 μM, single experiments, read-out: % inhibition (median)): 3%
Median oocyst # ([5]; 10 μM compound): 7
Mean oocyst # excluding zeros (Range) [5, 15]: 18 (0-74)
Prevalence [5, 16]: 74
Median (oocysts) ([5]; 10 µM): 7
Prevalence % ([5]; 10 µM): 74%
Prevalence ([5]; 10 μM, single experiments): 65 and 88 and 89
inhibition at 10 µM ([5]; 10 μM, single experiments, read-out: % inhibition (mean)): 52%
inhibition at 10 µM ([5]; 10 μM, single experiments, read-out: % inhibition (median)): 61%
oocyst formation inhibition ([5]; 1 to 10 µM): did not inhibit oocyst formation
IC50 at 48 h (in vitro): > 20 µM
